Test results from patent US12643887B2, “Heterocyclic derivatives with cardiomyocyte proliferation activity for treatment of heart diseases” (Tongji University, priority 2019, dated 2026).

How the values were obtained:
[1] = biological target: T1, human HIPK2 (Homo sapiens, UniProt Q9H2X6); assay: HIPK2 enzyme assay (ADP-Glo); assay type: biochemical; settings: ADP-Glo, ATP 5 μM; read-out: HIPK2 IC50
T1 construct: Recombinant human HIPK2 (1-640); GST (N); purchased SignalChem H04-11BG; host or cells: Sf9 insect cells
T1 sequence (Q9H2X6 1-640): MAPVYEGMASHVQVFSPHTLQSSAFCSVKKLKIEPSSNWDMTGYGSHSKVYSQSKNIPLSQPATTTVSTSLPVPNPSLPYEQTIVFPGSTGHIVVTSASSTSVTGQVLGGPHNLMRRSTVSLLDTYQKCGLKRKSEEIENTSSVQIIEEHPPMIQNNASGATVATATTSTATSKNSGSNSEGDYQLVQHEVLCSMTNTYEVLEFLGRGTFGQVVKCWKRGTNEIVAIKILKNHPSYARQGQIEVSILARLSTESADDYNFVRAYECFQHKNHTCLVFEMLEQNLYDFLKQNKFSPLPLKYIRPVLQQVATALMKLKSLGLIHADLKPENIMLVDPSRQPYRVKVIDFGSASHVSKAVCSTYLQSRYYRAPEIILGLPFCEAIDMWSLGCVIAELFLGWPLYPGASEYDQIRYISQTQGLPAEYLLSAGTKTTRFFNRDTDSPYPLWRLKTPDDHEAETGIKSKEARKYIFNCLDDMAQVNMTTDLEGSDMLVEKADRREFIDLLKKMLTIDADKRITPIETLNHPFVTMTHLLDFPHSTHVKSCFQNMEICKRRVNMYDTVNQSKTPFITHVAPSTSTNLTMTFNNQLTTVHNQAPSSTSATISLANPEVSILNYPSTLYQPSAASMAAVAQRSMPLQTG
Experimental: The ability of compounds to inhibit human HIPK2 kinase activities was determined using a commercially available ADP-Glo™ Kinase Assay kit (Promega, Cat #V9102) according to the manufacturer's protocol.
Recombinant human HIPK2 (1-640) (expressed in Sf9 insect cells with an N-terminal GST tag) was purchased from SignalChem (Cat #H04-11BG). Recombinant full length human MBP (expressed in E. Coli cells with an N-terminal GST tag) was purchased from SignalChem (Cat #M42-54G). This assay, run in a 384-well plate format, is a generic method for measuring kinase activities using an ADP-Glo Kinase Assay Kit. The basic assay procedure involves two steps: (1) Enzymatic step: inhibitors are incubated with the kinase and then ATP (included in the ADP-Glo Kinase Assay Kit) and the MBP protein are added to start the enzymatic reaction; (2) Detection step: after the kinase reaction, first ADP-Glo™ Reagent is added to terminate the kinase reaction and deplete the remaining ATP. Second, the Kinase Detection Reagent is added to simultaneously convert ADP to ATP and allow the newly synthesized ATP to be measured using a luciferase/luciferin reaction. The light generated is measured using a luminometer.
(§1) Briefly, HIPK2 (1 nM) in the enzymatic buffer solutions (40 mM Tris, pH 7.5, 20 mM MgCl2, 0.1 mg/ml BSA, 50 μM DTT) were mixed with various concentrations of inhibitors (dissolved in 100% DMSO). These solutions were incubated for 30 minutes at 25° C., and subsequently a mixture of substrate peptide and ATP was added with the final peptide and ATP concentrations at 0.05 mg/ml and 5 μM, respectively. The final reaction mixture of enzyme-substrate-ATP-compound was incubated for 90 minutes at 25° C.
(§2) Afterwards ADP-Glo™ Reagent was added and the mixture was incubated at 25° C. for 60 minutes. Then Kinase Detection Reagent was added, and the final mixture was incubated at 25° C. for 60 minutes. The luminescence signal of the final solution was measured on an Envision instrument (PerkinElmer). The percent (%) inhibition at each concentration of a compound is calculated relative to the luminescence signal in the Max and Min control wells contained within each assay plate. […] The concentrations and percent inhibition values for a test compound are plotted and the concentration of the compound required to achieve 50% inhibition (IC50) is determined with a four-parameter logistic dose response equation.

[2] = biological target: T2, human CLK1 (Homo sapiens, UniProt P49759); assay: CLK1 enzyme assay (ADP-Glo); assay type: biochemical; settings: ADP-Glo, ATP 10 μM; read-out: CLK1 IC50
T2 construct: Recombinant human CLK1 (129-end); GST (N); purchased SignalChem C57-11G; host or cells: Sf9 insect cells
T2 sequence (P49759 129-484 limits assumed): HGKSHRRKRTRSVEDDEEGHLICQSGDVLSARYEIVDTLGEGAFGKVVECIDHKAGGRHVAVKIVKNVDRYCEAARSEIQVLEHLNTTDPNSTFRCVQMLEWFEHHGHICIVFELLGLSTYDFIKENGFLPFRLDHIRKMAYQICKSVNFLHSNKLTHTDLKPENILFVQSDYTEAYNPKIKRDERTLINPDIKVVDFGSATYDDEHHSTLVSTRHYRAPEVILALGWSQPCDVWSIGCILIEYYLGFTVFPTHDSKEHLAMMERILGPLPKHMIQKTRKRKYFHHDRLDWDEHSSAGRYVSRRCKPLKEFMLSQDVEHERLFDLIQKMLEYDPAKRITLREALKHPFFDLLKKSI
Experimental: The ability of compounds to inhibit human CLK1 kinase activities was determined using a commercially available ADP-Glo™ Kinase Assay kit (Promega, Cat #V9102) according to the manufacturer's protocol.
Recombinant human CLK1 (129-end) (expressed in Sf9 insect cells with an N-terminal GST tag) was purchased from SignalChem (Cat #C57-11G). Recombinant full length human MBP (expressed in E. Coli cells with an N-terminal GST tag.) was purchased from SignalChem (Cat #M42-54G). This assay, run in a 384-well plate format, is a generic method for measuring kinase activities using an ADP-Glo Kinase Assay Kit. The basic assay procedure involves two steps: (1) Enzymatic step: inhibitors are incubated with the kinase and then ATP (included in the ADP-Glo Kinase Assay Kit) and the MBP protein are added to start the enzymatic reaction; (2) Detection step: after the kinase reaction, first ADP-Glo™ Reagent is added to terminate the kinase reaction and deplete the remaining ATP. Second, the Kinase Detection Reagent is added to simultaneously convert ADP to ATP and allow the newly synthesized ATP to be measured using a luciferase/luciferin reaction. The light generated is measured using a luminometer.
as §1, with “Briefly, CLK1 (16” for “Briefly, HIPK2 (1”, “at 2 μM” for “at 0.05 mg/ml”, “and 10” for “and 5”, “for 60” for “for 90”
as §2, with “added” for “added,”

IC50 [1] [nM] | IC50 [2] [nM] | SMILES
> 10000 | > 10000 | O=C1NC(NC23CC4CC(CC(C4)C2)C3)=N/C1=C\c1ccc2scnc2c1 [Example 50, (Z)-2-(adamantan-1-ylamino)-5-(benzo[d]thiazol-5-ylmethylene)-3,5-dihydro-4H-imidazol-4-one]
100 to 1000 | < 100 | O=C1NC(Nc2ccc3ncsc3c2)=N/C1=C\c1ccc2scnc2c1 [Example 57, (Z)-5-(benzo[d]thiazol-5-ylmethylene)-2-(benzo[d]thiazol-6-ylamino)-3,5-dihydro-4H-imidazol-4-one]
> 10000 | > 10000 | O=C1NC(Nc2ccc3ncsc3c2)=N/C1=C\c1ccc2cccnc2c1 [Example 60, (Z)-2-(benzo[d]thiazol-6-ylamino)-5-(quinolin-7-ylmethylene)-3,5-dihydro-4H-imidazol-4-one]
100 to 1000 | 100 to 1000 | Cn1cnc2cc(NC3=N/C(=C\c4ccc5ncsc5c4)C(=O)N3)ccc21 [Example 61, (Z)-5-(benzo[d]thiazol-6-ylmethylene)-2-((1-methyl-1H-benzo[d]imidazol-5-yl)amino)-3,5-dihydro-4H-imidazol-4-one]
< 100 | < 100 | O=C1NC(Nc2ccc3[nH]ccc3c2)=N/C1=C\c1ccc2ncsc2c1 [Example 69, (Z)-2-((1H-indol-5-yl)amino)-5-(benzo[d]thiazol-6-ylmethylene)-3,5-dihydro-4H-imidazol-4-one]

The next lines start with the compound.

SMILES | IC50 [1] [nM] | IC50 [2] [nM]
O=C1NC(Nc2ccccc2)=N/C1=C\c1ccc2[nH]ccc2c1 [Example 51, (Z)-5-((1H-indol-5-yl)methylene)-2-(phenylamino)-3,5-dihydro-4H-imidazol-4-one] | > 10000 | > 10000
O=C1NC(Nc2ccccc2)=N/C1=C\c1ccc2occc2c1 [Example 52, (Z)-5-(benzofuran-5-ylmethylene)-2-(phenylamino)-3,5-dihydro-4H-imidazol-4-one] | > 10000 | 100 to 1000
O=C1NC(Nc2ccccc2)=N/C1=C\c1ccc2ncccc2c1 [Example 53, (Z)-2-(phenylamino)-5-(quinolin-6-ylmethylene)-3,5-dihydro-4H-imidazol-4-one] | 100 to 1000 | < 100
O=C1NC(Nc2ccccc2)=N/C1=C\c1ccc2cn[nH]c2c1 [Example 54, (Z)-5-((1H-indazol-6-yl)methylene)-2-(phenylamino)-3,5-dihydro-4H-imidazol-4-one] | > 10000 | > 10000
O=C1NC(Nc2ccccc2)=N/C1=C\c1ccc2[nH]ncc2c1 [Example 55, (Z)-5-((1H-indazol-5-yl)methylene)-2-(phenylamino)-3,5-dihydro-4H-imidazol-4-one] | 100 to 1000 | < 100
O=C1NC(Nc2ccccc2)=N/C1=C\c1ccc2nn[nH]c2c1 [Example 56, (Z)-5-((1H-benzo[d][1,2,3]triazol-6-yl)methylene)-2-(phenylamino)-3,5-dihydro-4H-imidazol-4-one] | 1000 to 10000 | < 100
O=C1NC(Nc2ccc3ncsc3c2)=N/C1=C\c1ccc2[nH]ccc2c1 [Example 58, (Z)-5-((1H-indol-5-yl)methylene)-2-(benzo[d]thiazol-6-ylamino)-3,5-dihydro-4H-imidazol-4-one] | > 10000 | > 10000
O=C1NC(Nc2ccc3ncsc3c2)=N/C1=C\c1ccc2occc2c1 [Example 59, (Z)-2-(benzo[d]thiazol-6-ylamino)-5-(benzofuran-5-ylmethylene)-3,5-dihydro-4H-imidazol-4-one] | > 10000 | > 10000
O=C1NC(Nc2ccc3ncsc3c2)=N/C1=C\c1ccc2cc[nH]c2c1 [Example 63, (Z)-5-((1H-indol-6-yl)methylene)-2-(benzo[d]thiazol-6-ylamino)-3,5-dihydro-4H-imidazol-4-one] | > 10000 | > 10000
CN(C1=N/C(=C\c2ccc3c(c2)OCO3)C(=O)N1)c1ccc2ncsc2c1 [Example 70, (Z)-5-(benzo[d][1,3]dioxol-5-ylmethylene)-2-(benzo[d]thiazol-6-yl(methyl)amino)-3,5-dihydro-4H-imidazol-4-one] | > 10000 | < 100
